Key:
Experiment in all cases: relative viability (nuclei count vs DMSO), 5 days (fraction); higher = more cells survive
AZ628 + Lapatinib = compound: CC1=C(C=C(C=C1)NC(=O)C2=CC(=CC=C2)C(C)(C)C#N)NC3=CC4=C(C=C3)N=CN(C4=O)C [AZ628] + CS(=O)(=O)CCNCc1ccc(-c2ccc3ncnc(Nc4ccc(OCc5cccc(F)c5)c(Cl)c4)c3c2)o1 [Lapatinib] (partner 2 µM)
Method in brief: (§1)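 Medians of duplicate plates are given as relative viability. That measure is the nuclei count in treated wells divided by the count in vehicle wells. Counts were taken on 4× images of lung cancer cell lines in 1536-well plates, 5 days after pin-tool dosing the day after seeding with one drug alone or a fixed anchor-drug dose plus five library-drug doses (not always all listed) in √10 steps.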

[1] = compound: C[As](C)SC[C@H](NC(=O)CC[C@H](N)C(=O)O)C(=O)NCC(=O)O [Darinaparsin] + C[C@@H](Oc1cc(-c2cnn(C3CCNCC3)c2)cnc1N)c1c(Cl)ccc(F)c1Cl [Crizotinib] (partner 1 µM)
Method in brief: as §1

QS11 + Olaparib = compound: C1CC2=C(C1)C=C(C=C2)OC3=NC(=C4C(=N3)N(C=N4)CC5=CC=C(C=C5)C6=CC=CC=C6)N[C@@H](CC7=CC=CC=C7)CO [QS11] + O=C(c1cc(Cc2n[nH]c(=O)c3ccccc23)ccc1F)N1CCN(C(=O)C2CC2)CC1 [Olaparib] (partner 8 µM)
Method in brief: as §1

QS11 + Pictilisib = compound: C1CC2=C(C1)C=C(C=C2)OC3=NC(=C4C(=N3)N(C=N4)CC5=CC=C(C=C5)C6=CC=CC=C6)N[C@@H](CC7=CC=CC=C7)CO [QS11] + CS(=O)(=O)N1CCN(Cc2cc3nc(-c4cccc5[nH]ncc45)nc(N4CCOCC4)c3s2)CC1 [Pictilisib] (partner 1 µM)
Method in brief: as §1

For LCLC-97TM1, the relative viability (AZ628 + Lapatinib; first compound 0.08 µM) was 1.01, the relative viability (AZ628 + Lapatinib; first compound 0.253 µM) was 1.01 and the relative viability (AZ628 + Lapatinib; first compound 0.8 µM) was 1.37. It also gave a relative viability (AZ628 + Lapatinib; first compound 2.53 µM) of 1.2, a relative viability (AZ628 + Lapatinib; first compound 8 µM) of 0.152 and a relative viability ([1]; first compound 0.08 µM) of 0.517. For the same cell line, the relative viability ([1]; first compound 0.8 µM) was 0.354, the relative viability ([1]; first compound 2.53 µM) was 0.271 and the relative viability ([1]; first compound 8 µM) was 0.372. The relative viability (QS11 + Olaparib; first compound 0.253 µM) was 0.428, the relative viability (QS11 + Olaparib; first compound 2.53 µM) was 0.495 and the relative viability (QS11 + Olaparib; first compound 8 µM) was 0.464. The relative viability (QS11 + Pictilisib; first compound 0.08 µM) was 0.14, the relative viability (QS11 + Pictilisib; first compound 0.253 µM) was 0.193 and the relative viability (QS11 + Pictilisib; first compound 0.8 µM) was 0.209. The relative viability (QS11 + Pictilisib; first compound 2.53 µM) was 0.302 and the relative viability (QS11 + Pictilisib; first compound 8 µM) was 0.289.
